Experimental findings from US5684151A, “1-arylsulphonyl, arylcarbonyl and 1-arylphosphonyl-3-phenyl-1,4,5,6-tetrahydropyridazines” (priority 1995, dated 1997) are described below.

SMILES strings stand for the structures.

The IC50 is the concentration needed to halve the response being measured.

T1 sequence (P06186 whole entry): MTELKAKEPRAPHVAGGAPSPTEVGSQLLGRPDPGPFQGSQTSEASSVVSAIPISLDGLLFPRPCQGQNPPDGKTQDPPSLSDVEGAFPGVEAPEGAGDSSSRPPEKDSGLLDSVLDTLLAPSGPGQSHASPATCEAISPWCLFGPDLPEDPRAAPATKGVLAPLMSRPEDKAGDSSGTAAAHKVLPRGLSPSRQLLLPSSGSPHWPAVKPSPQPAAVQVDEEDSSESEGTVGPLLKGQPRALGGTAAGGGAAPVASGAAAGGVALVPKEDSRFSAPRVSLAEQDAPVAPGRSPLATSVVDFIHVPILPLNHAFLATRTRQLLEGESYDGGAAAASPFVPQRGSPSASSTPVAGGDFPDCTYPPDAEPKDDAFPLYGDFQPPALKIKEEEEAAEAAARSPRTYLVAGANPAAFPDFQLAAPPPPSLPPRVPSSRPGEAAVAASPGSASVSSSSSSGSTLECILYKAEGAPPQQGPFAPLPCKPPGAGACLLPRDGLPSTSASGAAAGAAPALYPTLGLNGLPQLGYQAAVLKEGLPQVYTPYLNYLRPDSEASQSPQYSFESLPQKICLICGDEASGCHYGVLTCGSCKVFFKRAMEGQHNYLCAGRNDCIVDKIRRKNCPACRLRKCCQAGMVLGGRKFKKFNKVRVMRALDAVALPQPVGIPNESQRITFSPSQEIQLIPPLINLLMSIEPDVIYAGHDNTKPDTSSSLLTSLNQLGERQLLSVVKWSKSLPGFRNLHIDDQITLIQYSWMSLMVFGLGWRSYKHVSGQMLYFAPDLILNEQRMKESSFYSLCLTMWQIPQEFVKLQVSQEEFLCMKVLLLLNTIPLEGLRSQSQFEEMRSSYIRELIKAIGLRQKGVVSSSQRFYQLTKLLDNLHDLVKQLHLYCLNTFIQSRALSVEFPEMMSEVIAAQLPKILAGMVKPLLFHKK

This experiment concerns the target T1, progestin receptor from rabbit uterus (Oryctolagus cuniculus, UniProt P06186).
T1 construct: Cytosolic progestin receptor were obtained by mixing rabbit uterine tissue with a Tris buffer; from tissue; host or cells: rabbit uterus cytosol
Put plainly: Progestin receptor binding (3H-R5020 displacement). The settings on record: rabbit uterine cytosol, 4° C., 18 h, read-out: IC50: Binding affinity for the progestin receptor from rabbit uterus. As for the experimental part:
A progestin initiates a biological response by first binding to a progestin receptor. Affinity for progestin receptors was determined by measuring the ability of compounds to displace a progestin radioligand from those receptors in vitro. Cytosolic progestin receptor were obtained by mixing rabbit uterine tissue with a Tris buffer [0.1M Tris-Hcl, 1 mM Na2 EDTA, 1 mM dithiothreotol, 1 mM sodium molybdate, 1% glycerol, pH 7.4]. The tissue/buffer mixture was homogenized under ice-cold conditions. The homogenate was then centrifuged and the supernatant (cytosol preparation) was decanted and stored at -70° C. and thawed prior to use. The competitive binding assay was performed by mixing ^3 H-R5020, a progestin radioligand, with cytosol preparation and various concentrations of test compounds (prepared in DMSO with a final 5% DMSO concentration). This mixture was then incubated at 4° C. for about 18 hours. Non-specific binding was determined using an unlabelled ligand in excess. After the incubation period, the radioligand bound to receptor was separated from free radioligand using dextran-coated charcoal. The amount of bound radioligand was then determined by liquid scintillation counting. The data were expressed as the concentration of test compound that displaced 50% of the radioligand from the receptor (IC50)
Aspects of the application used in this procedure are described in the following: J. L. McGuire et al., Biochemistry 13, 319, 1974.
Turning to `CC1CC(c2ccccc2)=NN(S(=O)(=O)c2cccc(C(F)(F)F)c2)C1` (stereo not drawn) [Compound 141], the IC50 came to 396 nM.
On to `O=S(=O)(c1ccc(I)cc1)N1CCCC(c2ccc3c(c2)oc2ccccc23)=N1` [Compound 145, 3-(Dibenzofuran-3-yl)-1-(4-iodobenzenesulfonyl)-1,4,5,6-tetrahydropyradazine], for which the IC50 was found to be 100 nM.
Consider `O=S(=O)(c1cc(Cl)ccc1Cl)N1CCCC(c2ccc(Br)cc2)=N1` [Compound 102], for which the IC50 was determined as 9 nM.
As to `O=S(=O)(c1ccc(I)cc1)N1CCCC(c2cccc(Cl)c2)=N1` [Compound 96], the IC50 was found to be 12.1 nM.
For `O=S(=O)(c1cc(Cl)c(Cl)cc1Cl)N1CCCC(c2ccc(Cl)cc2)=N1` [Compound 68], the IC50 is 13.4 nM.
Consider `O=S(=O)(c1ccccc1)N1CCCC(c2ccc(Cl)cc2)=N1` [Compound 37], for which the IC50 is 12.9 nM.
For `CN1C(=O)CSc2cc(C3=NN(S(=O)(=O)c4ccc(I)cc4)CCC3)ccc21` [Compound 138], the IC50 was found to be 341 nM.
Consider `O=S(=O)(c1ccc(I)cc1)N1CCC(Br)(Br)C(c2ccc(Cl)c(C(F)(F)F)c2)=N1` [Compound 162, 4,4-Dibromo-3-(4-chloro-3-trifluoromethylphenyl)-1-(4-iodobenzenesulfonyl)-1,4,5,6-tetrahydropyridazine], for which the IC50 stood at 3 nM.
Consider `O=S(=O)(c1ccc(I)cc1)N1CCCC(c2ccc(F)cc2)=N1` [Compound 20], for which the IC50 is 56 nM.
Then `O=S(=O)(c1ccc(C(F)(F)C(F)(F)F)cc1)N1CCCC(c2ccc(Cl)c(Cl)c2)=N1` [Compound 272, 3-(3,4-Dichlorophenyl)-1-(4-pentafluoroethylbenzenesulfonyl)-1,4,5,6-tetrahydropyridazine], with 329 nM; and `O=S(=O)(c1ccc(Br)cc1)N1CCCC(c2ccc(F)cc2)=N1` [Compound 19], with 61 nM; and `CN(C)c1ccc(C2=NN(S(=O)(=O)c3ccc(Br)cc3)CCC2)cc1` [Compound 213], with 326 nM.
For the compound `O=S(=O)(c1ccc2ccccc2c1)N1CCCC(c2ccc3ccccc3c2)=N1` [Compound 132], the IC50 amounted to 7.5 nM.
Then `Cc1ccc(S(=O)(=O)N2CC(C)CC(c3ccccc3)=N2)cc1` (stereo not drawn) [Compound 143], with 1380 nM; and `O=S(=O)(c1ccc(Cl)c(Cl)c1)N1CCCC(c2ccccc2)=N1` [Compound 60], with 191 nM; and `Cc1ccc(S(=O)(=O)N2CCCC(c3cccc(Cl)c3)=N2)cc1` [Compound 92], with 23.9 nM.
Take `CCCCc1ccc(S(=O)(=O)N2CCCC(c3ccc(Cl)c(Cl)c3)=N2)cc1` [Compound 108]: the IC50 was found to be 3.35 nM.
Then `COC(=O)c1ccccc1S(=O)(=O)N1CCCC(c2ccc(F)cc2)=N1` [Compound 26], with 451 nM; and `CCCCc1ccc(S(=O)(=O)N2CCCC(c3ccccc3)=N2)cc1` [Compound 55], with 21.9 nM; and `O=S(=O)(c1cccc(C(F)(F)F)c1)N1CCCC(c2ccc(Cl)c(Cl)c2)=N1` [Compound 98], with 2.5 nM.
On to `O=[N+]([O-])c1ccccc1S(=O)(=O)N1CCCC(c2ccc(Cl)cc2)=N1` [Compound 27], for which the IC50 was 65 nM.
Take `O=S(=O)(c1cccc(C(F)(F)F)c1)N1CCCC(c2ccc(Cl)c(C(F)(F)F)c2)=N1` [Compound 126]: the IC50 came to 7.14 nM.
Turning to `O=[N+]([O-])c1ccc(C(=S)N2CCCC(c3ccc(Cl)c(Cl)c3)=N2)cc1` [Compound 242], the IC50 came out at 12 nM.
For the compound `O=S(=O)(c1ccc(C(F)(F)F)cc1)N1CCCC(c2ccccc2)=N1` [Compound 61], the IC50 amounted to 435 nM.
Then `O=S(=O)(c1ccc(Cl)cc1)N1CCCC(c2ccccc2)=N1` [Compound 48], with 266 nM.
Then `O=S(=O)(c1cc(Cl)ccc1Cl)N1CCCC(c2ccccc2)=N1` [Compound 52], with 42 nM; and `O=S(=O)(c1ccc(I)cc1)N1CCCC(c2ccccc2)=N1` [Compound 50], with 316 nM; and `O=S(=O)(c1ccc(F)cc1)N1CCCC(c2ccccc2)=N1` [Compound 54], with 780 nM.
As to `O=S(=O)(c1ccc(Cl)cc1)N1CCCC(c2cccc(Cl)c2)=N1` [Compound 93], the 50% inhibitory concentration (IC50) was 11.1 nM.
Take `O=S(=O)(c1ccc(Cl)c(Cl)c1)N1CCCC(c2ccc(Cl)cc2)=N1` [Compound 30]: the IC50 worked out at 22 nM.
Then `O=S(=O)(c1ccc(F)cc1)N1CCCC(c2ccc(F)cc2)=N1` [Compound 18], with 204 nM; and `O=S(=O)(c1ccc(Br)cc1)N1CCCC(c2ccccc2)=N1` [Compound 49], with 127 nM; and `O=S(=O)(c1ccc(C(F)(F)F)cc1)N1CCCC(c2ccc(Cl)cc2)=N1` [Compound 36], with 11.5 nM.
Then `CCCCc1ccc(C2=NN(S(=O)(=O)c3ccc(CCCC)cc3)CCC2)cc1` [Compound 75], with 10000 nM; and `O=[N+]([O-])c1cccc(S(=O)(=O)N2CCCC(c3ccccc3)=N2)c1` [Compound 62], with 157 nM; and `O=S(=O)(c1cccc2ccccc12)N1CCCC(c2ccccc2)=N1` [Compound 56], with 85.2 nM.
`O=S(=O)(c1ccc(Br)cc1)N1CCCC(c2ccc(Br)cc2)=N1` [Compound 100]: the concentration for half-maximal inhibition (IC50) was 23 nM.
Under `O=S(=O)(c1ccc2c(c1)CCCC2)N1CCCC(c2ccc(Cl)c(Cl)c2)=N1` [Compound 114] stands 6.5 nM.
Under `CCCCc1ccc(C2=NN(S(=O)(=O)c3cccc([N+](=O)[O-])c3)CCC2)cc1` [Compound 70] stands 10000 nM; under `O=S(=O)(c1ccc(I)cc1)N1N=C(c2ccc(Cl)cc2)CC2CC=CC21` (stereo not drawn) [Compound 160, 3-(4-Chlorophenyl)-1-(4-iodobenzenesulfonyl)-4,4a,5,7a-tetrahydro-1H-cyclopenta[c]pyridiazine], 32 nM; under `O=S(=O)(c1cc(Cl)cc(Cl)c1)N1CCCC(c2ccc(Cl)cc2)=N1` [Compound 31], 4 nM.
Under `O=S(=O)(c1ccccc1)N1CCCC(c2ccccc2)=N1` [Compound 66] stands 375 nM; under `O=[N+]([O-])c1ccccc1S(=O)(=O)N1CCCC(c2ccc(F)cc2)=N1` [Compound 24], 308 nM; under `Cc1ccc(S(=O)(=O)N2CCCC(c3ccc(Br)cc3)=N2)cc1` [Compound 101], 195 nM.
With `O=[N+]([O-])c1cc(S(=O)(=O)N2CCCC(c3ccc(Cl)cc3)=N2)ccc1Cl` [Compound 67], the IC50 was found to be 126 nM.
Under `O=S(=O)(c1cc(Cl)ccc1Cl)N1CCCC(c2ccc3c(c2)OCCO3)=N1` [Compound 123] stands 557 nM; under `Cc1ccc(C(=O)N2CCCC(c3ccc(Cl)cc3)=N2)cc1` [Compound 146, 1-(4-Methylbenzoyl)-3-(4-chlorophenyl)-1,4,5,6-tetrahydropyridazine], 1000 nM; under `O=S(=O)(c1ccccc1)N1CCCC(c2ccc(Br)cc2)=N1` [Compound 103], 149 nM.
Then `O=[N+]([O-])c1cccc(S(=O)(=O)N2CCCC(c3ccc(Cl)c(C(F)(F)F)c3)=N2)c1` [Compound 127], with 4.04 nM; and `O=S(=O)(c1ccc(Cl)cc1)N1CCCC(c2ccc(Br)cc2)=N1` [Compound 99], with 21 nM; and `Cc1ccc(/C=C/S(=O)(=O)N2CCCC(c3ccc4ccccc4c3)=N2)cc1` [Compound 175], with 6.2 nM.
Then `O=S(=O)(/C=C/c1ccccc1)N1CCCC(c2ccc(Cl)c(C(F)(F)F)c2)=N1` [Compound 276], with 53.9 nM; and `O=S(=O)(c1ccccc1)N1CCCC(c2ccc3ccccc3c2)=N1` [Compound 131], with 17.4 nM.
Consider `CCCCc1ccc(S(=O)(=O)N2CCCC(c3ccc(Cl)c(C(F)(F)F)c3)=N2)cc1` [Compound 116], for which the IC50 is 8.77 nM.
With `O=S(=O)(c1ccc(I)cc1)N1CCCC(c2ccc(Cl)cc2)=N1` [Compound 16], the IC50 turned out to be 4.2 nM.
Then `Fc1ccc(C(=S)N2CCCC(c3ccc(Cl)c(Cl)c3)=N2)cc1Br` [Compound 246], with 114 nM; and `O=[N+]([O-])c1ccc(S(=O)(=O)N2CCCC(c3ccc(Cl)cc3)=N2)c([N+](=O)[O-])c1` [Compound 28], with 3140 nM; and `COC(=O)c1ccccc1S(=O)(=O)N1CCCC(c2ccc(Cl)cc2)=N1` [Compound 29], with 244 nM.
As to `O=S(=O)(c1cccc(C(F)(F)F)c1)N1CCCC(c2ccc3ccccc3c2)=N1` [Compound 130], the IC50 was determined as 2.31 nM.
In the case of `O=S(=O)(c1ccc(C(F)(F)F)cc1)N1CCCC(c2ccc3ccccc3c2)=N1` [Compound 129], the IC50 worked out at 4.94 nM.
Under `Nc1ccc(S(=O)(=O)N2CCCC(c3ccc(Cl)c(Cl)c3)=N2)cc1` [Compound 274, 1-(4-Aminobenzenesulfonyl)-3-(3,4-dichlorophenyl)-1,4,5,6-tetrahydropyridazine] stands 204 nM.
As for `O=S(=O)(c1cc(Cl)ccc1Cl)N1CCCC(c2ccc3ccccc3c2)=N1` [Compound 118], the IC50 turned out to be 5.56 nM.
Consider `COC(=O)c1ccc(S(=O)(=O)N2CCCC(c3ccc(Cl)c(Cl)c3)=N2)cc1` [Compound 273, 3-(3,4-Dichlorophenyl)-1-(4-carbomethoxybenzesulfonyl)-1,4,5,6-tetrahydropyridazine], for which the IC50 was 3.4 nM.
